# Data as given in patent US8445207B2, “Genes based on thalidomide, valproic acid and methotrexate treatment for screening of drug inducing teratogenicity and screening method using thereof” (priority 2009, dated 2013).
# System: JEG-3 (human placental choriocarcinoma cell line)
# Test: Oligo microarray gene expression in drug-treated JEG-3 (Cy5 treated / Cy3 control)
# Format: cell-based
# Description: Thalidomide, valproic acid, and methotrexate were treated to human placental choriocarcinoma cell line at the concentrations determined above (Inhibition concentration: the concentration that can kill approximately 30% of the total cells, that is the concentration of 70% viability, IC30). mRNA was extracted from the drug treated cell line, followed by synthesis of cDNA which was labeled with Cy5. The non-treated control was labeled with Cy3. The fluorescence labeled cDNA was hybridized with 41K (thalidomide), 44K (valproic acid, methotrexate) human whole genome oligomicroarray chips (Agilent, USA), followed by fluorescent image scanning to analyze gene expression patterns (see FIG. 4). Volcano Plot of each substance was also attached. Y axis indicates probability (generally converted by −log 10). X axis indicates differential expression, which is presented by log-ratio.
# Total RNA was separated from the treated cell by using trizol reagent (Invitrogen Life Technologies, USA) according to the manufacture's instructions, followed by purification using RNeasy mini kit (Qiagen, USA). Genomic DNA was eliminated during RNA purification using RNase-free DNase set (Qiagen, USA).
# 30 μg of the total RNA obtained above and 2 μg (1 μg/μl) of oligo (dT) primer were mixed, followed by reaction at 65° C. for 10 minutes. Annealing was performed in ice right after the reaction. Reagents were prepared as shown in Table 1 for reverse transcription of the annealed RNA.
# The total RNA separated from the control group JEG-3 cells was labeled with Cy3-dUTP (green) and the total RNA separated from the experiment group JEG-3 cells treated with thalidomide, valproic acid and methotrexate was labeled with Cy5-dUTP (red). At this time, the two samples were mixed and purified by Microcon YM-30 column (Millipore, USA).
# Hybridization and washing were performed by the manufacturer's (GenoCheck, Korea) instructions. Particularly, hybridization was performed in a 62° C. oven for 12 hours. As a DNA microarray chip, 44 k whole human genome oligo microarray (Agilent, USA) was used. After washing (2 minutes with 2×SSC/0.1% SDS, three minutes with 1×SSC, 2 minutes with 0.2×SSC), the slide was dried by centrifugation at 800 rpm for 3 minutes.
# Hybridization image on the slide was scanned with Genepix 4000B (Axon Instruments, USA). Fluorescence image of the chip on which non-hybridized genes had been washed out was obtained by using laser fluorescence scanner. Green fluorescence image indicates the activity of gene specifically expressed in the control group and red fluorescence image indicates the activity of gene specifically expressed in the experimental group. […] Scanned image was analyzed by using GenePix 4.1 software (Axon Instruments, USA) to calculate gene expression rate.
# [1] = out of 21797 (thalidomide), 21921 (valproic acid), 24006 (methotrexate) genes
# [2] = treated at IC30, up-regulated gene, (k) common gene which has no function
compound,measurement,setting,value
"CN(Cc1cnc2nc(N)nc(N)c2n1)c1ccc(C(=O)N[C@@H](CCC(=O)O)C(=O)O)cc1 [MTX, methotrexate]","Ratio of intermediate value, CBS","Genbank L00972, drug at IC30",0.47
same,"Ratio of intermediate value, ATM","Genbank NM_000051, drug at IC30",0.48
same,"Ratio of intermediate value, KAL1","Genbank NM_000216, drug at IC30",0.43
same,"Ratio of intermediate value, PMP22","Genbank NM_000304, drug at IC30",0.43
same,"Ratio of intermediate value, ATR","Genbank NM_001184, drug at IC30",0.41
same,"Ratio of intermediate value, PARP1","Genbank NM_001618, drug at IC30",0.60
same,"Ratio of intermediate value, AUH","Genbank NM_001698, drug at IC30",0.39
same,"Ratio of intermediate value, CDO1","Genbank NM_001801, drug at IC30",0.45
same,"Ratio of intermediate value, MGMT","Genbank NM_002412, drug at IC30",0.48
same,"Ratio of intermediate value, NTHL1","Genbank NM_002528, drug at IC30",0.42
same,"Ratio of intermediate value, UNG","Genbank NM_003362, drug at IC30",0.41
same,"Ratio of intermediate value, EEF1E1","Genbank NM_004280, drug at IC30",0.46
same,"Ratio of intermediate value, FEZ1","Genbank NM_005103, drug at IC30",0.43
same,"Ratio of intermediate value, BCAT1","Genbank NM_005504, drug at IC30",0.12
same,"Ratio of intermediate value, BCKDK","Genbank NM_005881, drug at IC30",0.48
same,"Ratio of intermediate value, POLD2","Genbank NM_006230, drug at IC30",0.29
same,"Ratio of intermediate value, FARS2","Genbank NM_006567, drug at IC30",0.46
same,"Ratio of intermediate value, POLG2","Genbank NM_007215, drug at IC30",0.45
same,"Ratio of intermediate value, ABL1","Genbank NM_007313, drug at IC30",0.49
same,"Ratio of intermediate value, LIG3","Genbank NM_013975, drug at IC30",0.49
same,"Ratio of intermediate value, CGI-04","Genbank NM_015936, drug at IC30",0.47
same,"Ratio of intermediate value, MAPT","Genbank NM_016835, drug at IC30",0.38
same,"Ratio of intermediate value, FLJ10514","Genbank NM_018122, drug at IC30",0.38
same,"Ratio of intermediate value, LGP1","Genbank NM_032484, drug at IC30",0.49
same,"Ratio of intermediate value, PSAT1","Genbank NM_058179, drug at IC30",0.31
same,"Ratio of intermediate value, HARS2","Genbank NM_080820, drug at IC30",0.26
same,"Ratio of intermediate value, DBN1","Genbank NM_080881, drug at IC30",0.44
same,"Ratio of intermediate value, ASNS","Genbank NM_133436, drug at IC30",0.33
same,"Ratio of intermediate value, ROBO1","Genbank NM_133631, drug at IC30",0.39
same,"Ratio of intermediate value, TARSL2","Genbank NM_152334, drug at IC30",0.36
same,"Ratio of intermediate value, CNTN4","Genbank NM_175607, drug at IC30",0.31
same,"Ratio of intermediate value, ERCC8","Genbank NM_001007233, drug at IC30",0.41
same,"Ratio of intermediate value, RAD50","Genbank U63139, drug at IC30",0.36
same,"Ratio of intermediate value, VARS2","Genbank X59303, drug at IC30",0.33
same,"Ratio of intermediate value, SR140","Genbank XM_031553, drug at IC30",0.66
same,"Ratio of intermediate value, LOC389173","Genbank XM_371677, drug at IC30",0.27
same,genes down-regulated (ratio of intermediate value less than 0.666),"JEG-3, drug at IC30, 48 hours",6.28%
same,genes up-regulated (ratio of intermediate value more than 1.5),"JEG-3, drug at IC30, 48 hours",9.5%
same,number of genes down-regulated,[1],1508
same,number of genes up-regulated,[1],2149
same,"Ratio of intermediate value, gene ATP10B (AB018258, ATPase, Class V, type 10B)",[2],4.95
same,"Ratio of intermediate value, gene BQ186674 (cDNA clone UI-E-EJ1-ajr-f-10-0-UI, Hypothetical gene supported by AF086204)",[2],3.79
same,"Ratio of intermediate value, gene BX111592 (Transcribed locus, moderately similar to XP_066443.6 PREDICTED: similar to paraneoplastic antigen like 6A)",[2],9.86
same,"Ratio of intermediate value, gene CGA (NM_000735, Glycoprotein hormones, alpha polypeptide)",[2],8.07
same,"Ratio of intermediate value, gene COBLL1 (BX649112, COBL-like 1)",[2],4.89
same,"Ratio of intermediate value, gene CYP19A1 (AK023571, Cytochrome P450, family 19, subfamily A, polypeptide 1)",[2],2.72
same,"Ratio of intermediate value, gene FLJ11017 (AK001879, Hypothetical protein FLJ11017)",[2],4.69
same,"Ratio of intermediate value, gene GLCCI1 (AK126731, Glucocorticoid induced transcript 1)",[2],2.84
same,"Ratio of intermediate value, gene KIAA0310 (AB002308, KIAA0310)",[2],2.29
same,"Ratio of intermediate value, gene MGC27016 (AK125877, Hypothetical protein MGC27016)",[2],1.52
same,"Ratio of intermediate value, gene NCOA3 (NM_181659, Nuclear receptor coactivator 3)",[2],2.12
same,"Ratio of intermediate value, gene RGS2 (BC042755, Regulator of G-protein signalling 2, 24 kDa)",[2],9.24
same,"Ratio of intermediate value, gene SIAT7A (BC063830, ST6 (alpha-N-acetyl-neuraminyl-2,3-beta-galactosyl-1,3)-N-acetylgalactosaminide alpha-2,6-sialyltransferase 1)",[2],15.01
same,"Ratio of intermediate value, gene SIAT8D (NM_005668, ST8 alpha-N-acetyl-neuraminide alpha-2,8-sialyltransferase 4)",[2],1.82
same,"Ratio of intermediate value, gene SLC7A8 (Y18483, Solute carrier family 7 (cationic amino acid transporter, y+ system), member 8)",[2],3.76
same,"Ratio of intermediate value, gene SLC40A1 (AK023574, Solute carrier family 40 (iron-regulated transporter), member 1)",[2],3.06
same,"Ratio of intermediate value, gene TFCP2L4 (BC036890, Grainyhead-like 3 (Drosophila))",[2],4.11
same,"Ratio of intermediate value, gene TTF2 (AB209845, Transcription termination factor, RNA polymerase II)",[2],1.94
same,"Ratio of intermediate value, gene TUBB3 (AK122757, Tubulin, beta 3)",[2],7.85
same,"Ratio of intermediate value, gene TncRNA (AF001893, Trophoblast-derived noncoding RNA)",[2],2.11
